In patent US8846704B2, “Thiopyrimidine-based compounds and uses thereof” (YM Biosciences Austraila Pty Ltd, priority 2007, dated 2014) one finds IC50 data, which are given here for 36 compounds.

For this assay, the target named is T1, human JAK3 (Homo sapiens, UniProt P52333).
T1 construct: The kinase domain of human JAK3 was amplified; GST (N); made in house; host or cells: Sf9 insect cells (baculovirus)
Kind of assay: Alphascreen tyrosine kinase enzyme assay, JAK3 kinase domain. Format: biochemical. The following applies: read-out: JAK3 IC50_nM. How it is done: For screening purposes, compounds (in 100% DMSO) were warmed at 37 degrees for at least 20 minutes before use. A […] stock was initially made in assay buffer, where the final concentration of DMSO was 0.3%. The stocks were then diluted in 384 well Optiplates (Packard) where the final concentration of the compound was […].
The kinase domain of human JAK3 was amplified from U937mRNA using the polymerase chain reaction with the following primers: […]
The JAK3 PCR products were cloned into the pDest20 destination expression vector (Gibco). The JAK3 plasmid was then transformed into competent DH10Bac cells (Gibco), and the recombinant baculovirus was prepared via Sf9 insect cell transfection.
Baculovirus preparations from each of the constructs were infected into either one or five liters of Sf9 cells (Invitrogen) grown in SF-900 medium (Invitrogen) to a cell density of approximately 1-2×10^6 cells/ml. Cells were infected with virus at a MOI of 0.8-3.0. Cells were harvested and lysed. Tyrosine kinase domains were purified by affinity chromatography on a glutathione-agarose column (Scientifix Pty. Ltd. catalog #: GSH-200).
Kinase assays were performed in 384 well Optiplates (Packard) using an Alphascreen Protein Tyrosine Kinase PY100 detection kit The compounds were pre-incubated with affinity purified PTK domain in the presence of phosphotyrosine assay buffer (10 mM HEPES, pH 7.5, 100 mM MgCl2, 25 mM NaCl, […] and 0.1% Tween 20) for 20 minutes. The compounds were then incubated with substrate in the presence of ATP. The substrate used was susbtrate-1 with the sequence biotin-EGPWLEEEEEAYGWMDF-NH2 [SEQ. ID. NO. 13] (final concentration […]). For HCK 80 μm ATP was used and incubated for 60 minutes. Alphascreen phosphotyrosine acceptor beads followed by streptavidin donor beads at a concentration of 1/100 in stop buffer were added to each well under subdued light and incubated for 2-3 hours., The Alphascreen plates were read on a Packard Fusion Alpha instrument.

The structures appear in SMILES notation. pIC50: −log10 of the molar value.

T1 sequence (P52333 822-1111 limits assumed): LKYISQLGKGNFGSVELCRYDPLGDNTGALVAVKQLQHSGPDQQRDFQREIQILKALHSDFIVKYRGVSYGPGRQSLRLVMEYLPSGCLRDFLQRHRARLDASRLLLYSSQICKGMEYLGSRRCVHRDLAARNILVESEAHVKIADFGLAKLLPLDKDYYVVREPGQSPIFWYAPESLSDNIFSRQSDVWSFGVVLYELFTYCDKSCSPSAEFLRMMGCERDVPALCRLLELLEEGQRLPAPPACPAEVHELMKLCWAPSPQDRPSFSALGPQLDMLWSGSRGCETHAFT

As for `C=CC(=O)Nc1cccc(Nc2nccc(Sc3ccccn3)n2)c1` [Compound 2, N-(3-(4-(pyridin-2-ylthio)pyrimidin-2-ylamino)phenyl)acrylamide], the pIC50 was more than 7.00.
On to `CC#CC(=O)Nc1cccc(Nc2nccc(SC)n2)c1` [Compound 8, N-(3-(4-(methylthio)pyrimidin-2-ylao)phenyl)but-2-ynamide], for which the pIC50 was more than 7.00.
Next, `C=CC(=O)Nc1ccc(Nc2nccc(SC)n2)cc1` [Compound 13, N-(4-(4-(methylthio)pyrimidin-2-ylao)phenyl)acrylamide]: more than 7.00.
As for `C=CC(=O)Nc1cccc(Nc2nccc(Sc3ccccc3)n2)c1` [Compound 16, N-(3-(4-(phenylthio)pyrimidin-2-ylamino)phenyl)acrylamide], the pIC50 was more than 7.00.
To `C=CC(=O)Nc1cccc(Sc2ccnc(Nc3ccc(N4CCOCC4)cc3)n2)c1` [Compound 23, N-(3-(2-(4-morpholinophenylamino)pyrimidin-4-ylthio)phenyl)acrylamide] belongs more than 7.00; to `C=CC(=O)Nc1ccc(Sc2ccnc(Nc3ccc(N4CCOCC4)cc3)n2)cc1` [Compound 25, N-(4-(2-(4-morpholinophenylamino)pyrimidin-4-ylthio)phenyl)acrylamide], more than 7.00; to `Nc1ccc(Sc2ccnc(Nc3ccc(N4CCOCC4)cc3)n2)cc1` [Compound 27, 4-(4-aophenylthio)-N-(4-morpholinophenyl)pyrimidin-2-ae], more than 6.00.
To `C=CC(=O)Nc1cccc(Nc2nccc(Sc3ccc(OC)cc3)n2)c1` [Compound 42, N-(3-(4-(4-methoxyphenylthio)pyrimidin-2-ylao)phenyl)acrylamide] belongs more than 7.00; to `OCc1cccc(Sc2ccnc(Nc3ccc(N4CCOCC4)cc3)n2)c1` [Compound 62, (3-(2-(4-Morpholinophenylamino)pyrimidin-4-ylthio)phenyl)methanol], more than 6.30; to `OCc1ccc(Sc2ccnc(Nc3ccc(N4CCOCC4)cc3)n2)cc1` [Compound 67, (4-(2-(4-morpholinophenylao)pyrimidin-4-ylthio)phenyl)methanol], more than 6.30.
Next, `N#CCNCc1cccc(Sc2ccnc(Nc3ccc(N4CCOCC4)cc3)n2)c1` [Compound 68, 2-(3-(2-(4-morpholinophenylao)pyrimidin-4-ylthio)benzylao)acetonitrile]: more than 6.30.
For `NCc1cccc(Sc2ccnc(Nc3ccc(N4CCOCC4)cc3)n2)c1` [Compound 75, 4-(3-(aomethyl)phenylthio)-N-(4-morpholinophenyl)pyrimidin-2-ae], the pIC50 was more than 6.30.
To `C=CC(=O)Nc1ccc(Sc2ccnc(Nc3cccc(N4CCOCC4)c3)n2)cc1` [Compound 77, N-(4-(2-(3-morpholinophenylao)pyrimidin-4-ylthio)phenyl)acrylamide] belongs more than 7.00.
To `C=CC(=O)Nc1ccc(Sc2ccnc(Nc3cc(C)cc(C)c3)n2)cc1` [Compound 82, N-(4-(2-(3,5-dimethylphenylao)pyrimidin-4-ylthio)phenyl)acrylamide] belongs more than 7.00.
To `c1cc(Sc2ccc(Cn3cnnn3)cc2)nc(Nc2ccc(N3CCOCC3)cc2)n1` [Compound 109, 4-(4-((1H-tetrazol-1-yl)methyl)phenylthio)-N-(4-morpholinophenyl)pyrimidin-2-ae] belongs more than 6.30; to `C=CC(=O)Nc1cccc(Sc2ccnc(Nc3cccc(N4CCOCC4)c3)n2)c1` [Compound 110, N-(3-(2-(3-morpholinophenylao)pyrimidin-4-ylthio)phenyl)acrylamide], more than 7.00.
For the compound `C=CC(=O)NCc1ccc(Sc2ccnc(Nc3ccc(N4CCOCC4)cc3)n2)cc1` [Compound 111, N-(4-(2-(4-morpholinophenylamino)pyrimidin-4-ylthio)benzyl)acrylamide], the pIC50 is more than 7.00.
Turning to `C=CC(=O)NCc1cccc(Sc2ccnc(Nc3ccc(N4CCOCC4)cc3)n2)c1` [Compound 112, N-(3-(2-(4-morpholinophenylamino)pyrimidin-4-ylthio)benzyl)acrylamide], the pIC50 was more than 7.00.
To `C=CC(=O)Nc1ccc(Sc2ccnc(Nc3ccc(N4CCOCC4)cc3)n2)cc1OC` [Compound 123, N-(2-methoxy-4-(2-(4-morpholinophenylao)pyrimidin-4-ylthio)phenyl)acrylamide] belongs more than 7.00.
Regarding `N#Cc1nnnn1Cc1ccc(Sc2ccnc(Nc3ccc(N4CCOCC4)cc3)n2)cc1` [Compound 155, 1-(4-(2-(4-morpholinophenylao)pyrimidin-4-ylthio)benzyl)-1H-tetrazole-5-carbonitrile], the pIC50 was more than 7.00.
On to `N#Cc1nnn(Cc2ccc(Sc3ccnc(Nc4ccc(N5CCOCC5)cc4)n3)cc2)n1` [Compound 156, 2-(4-(2-(4-morpholinophenylao)pyrimidin-4-ylthio)benzyl)-2H-tetrazole-5-carbonitrile], for which the pIC50 was more than 7.00.
To `Cc1cc(N)ccc1Sc1nc(Nc2ccc(N3CCOCC3)cc2)ncc1C` [Compound 162, 4-(4-ao-2-methylphenylthio)-5-methyl-N-(4-morpholinophenyl)pyrimidin-2-ae] belongs more than 7.00; to `C=CC(=O)Nc1ccc(Sc2nc(Nc3ccc(N4CCOCC4)cc3)ncc2C)c(C)c1` [Compound 163, N-(3-methyl-4-(5-methyl-2-(4-morpholinophenylao)pyrimidin-4-ylthio)phenyl)acrylamide], more than 7.00; to `Cc1cnc(Nc2ccc(N3CCOCC3)cc2)nc1Sc1c(C)cc(N)cc1C` [Compound 165, 4-(4-ao-2,6-dimethylphenylthio)-5-methyl-N-(4-morpholinophenyl)pyrimidin-2-ae], more than 6.30.
As for `C=CC(=O)N(C)c1ccc(Sc2nc(Nc3ccc(N4CCOCC4)cc3)ncc2C)cc1` [Compound 173, N-methyl-N-(4-(5-methyl-2-(4-morpholinophenylao)pyrimidin-4-ylthio)phenyl)acrylamide], the pIC50 is more than 7.00.
Next, `Cc1cnc(Nc2ccc(O)cc2)nc1Sc1ccc(NC(=O)CCl)cc1` [Compound 193, 2-chloro-N-(4-(2-(4-hydroxyphenylao)-5-methylpyrimidin-4-ylthio)phenyl)acetamide]: more than 7.00.
In the case of `Cc1cnc(Nc2cccc(O)c2)nc1Sc1ccc(NC(=O)CCl)cc1` [Compound 194, 2-chloro-N-(4-(2-(3-hydroxyphenylao)-5-methylpyrimidin-4-ylthio)phenyl)acetamide], the pIC50 is more than 7.00.
To `N#Cc1ncn(Cc2ccc(Sc3ccnc(Nc4ccc(N5CCOCC5)cc4)n3)cc2)c1C#N` [Compound 201, 1-(4-(2-(4-morpholinophenylao)pyrimidin-4-ylthio)benzyl)-1H-imidazole-4,5-dicarbonitrile] belongs more than 7.00; to `Cc1cnc(Nc2ccc(N3CCOCC3)cc2)nc1Sc1ccc(NC(=O)CSCC(=O)O)cc1` [Compound 230, 2-(2-(4-(5-methyl-2-(4-morpholinophenylao)pyrimidin-4-ylthio)phenylao)-2-oxoethylthio)acetic acid], more than 7.00.
`Cc1cnc(Nc2ccc(N3CCOCC3)cc2)nc1Sc1ccc(N2C(=O)CSCC2=O)cc1` [Compound 231, 4-(4-(5-methyl-2-(4-morpholinophenylao)pyrimidin-4-ylthio)phenyl)thiomorpholine-3,5-dione]: the pIC50 is more than 7.00.
To `CC#CC(=O)Nc1cccc(Sc2ccnc(Nc3cccc(N4CCOCC4)c3)n2)c1` [Compound 232, N-(3-(2-(3-morpholinophenylao)pyrimidin-4-ylthio)phenyl)but-2-ynamide] belongs more than 7.00.
`CC#CC(=O)Nc1ccc(Sc2ccnc(Nc3cccc(N4CCOCC4)c3)n2)cc1` [Compound 233, N-(4-(2-(3-morpholinophenylao)pyrimidin-4-ylthio)phenyl)but-2-ynamide]: the pIC50 is more than 7.00.
To `C=CC(=O)Nc1ccc(Sc2nc(Nc3cccc(OC)c3)ncc2C)cc1` [Compound 235, N-(4-(2-(3-methoxyphenylao)-5-methylpyrimidin-4-ylthio)phenyl)acrylamide] belongs more than 7.00; to `C=CC(=O)Nc1ccc(Sc2nc(Nc3cccc(N4CCOCC4)c3)ncc2C)cc1` [Compound 237, N-(4-(5-methyl-2-(3-morpholinophenylao)pyrimidin-4-ylthio)phenyl)acrylamide], more than 7.00.
Next, `C=CC(=O)Nc1ccc(Sc2ccnc(Nc3ccc(N4CCN(C)CC4)cc3)n2)cc1` [Compound 238, N-(4-(2-(4-(4-methylpiperazin-1-yl)phenylao)pyrimidin-4-ylthio)phenyl)acrylamide]: more than 7.00; `C=CC(=O)Nc1ccc(Sc2nc(Nc3ccc(N4CCN(C)CC4)cc3)ncc2C)cc1` [Compound 239, N-(4-(5-methyl-2-(4-(4-methylpiperazin-1-yl)phenylao)pyrimidin-4-ylthio)phenyl)acrylamide]: more than 7.00.
